Each compound was assayed on HT-1197 (assay: Cell panel screen (CellTiter-Glo)). Settings: HT-1197 (Urinary bladder), 20 micromolar, 72 hrs.
Format: cell-based, human
Procedure: (§1) All cells were obtained from the cell bank of the American Type Culture Collection (ATCC) and cultured in the supplier's recommended media supplemented with 10% FBS. The cell panel screen was measured using the CellTiter-Glo assay (Promega, Madison, WI) following a standard protocol. Briefly, cancer cells were seeded in 96-well plates and cultured overnight at 37°C with or without 5% CO2 in an incubator. Each compound was dissolved with limited DMSO and diluted to a certain concentration with culture medium and then added to the corresponding well of the cell plate. The final concentration of compound was 20 μM. The control cells (without treatment) received the same amount of DMSO and were incubated under the same conditions. After 72 h cultivation, 100 μL of the CellTiter-Glo reagent was added directly to each well for 10-minute incubation. The plate was then read on a FlexStation 3 microplate luminometer (Molecular Devices, USA) to monitor the luminescence signal generated by the luciferase-catalyzed reaction of luciferin and ATP. The percent of growth inhibition was calculated using the following formula: (untreated cells − treated cells)/(untreated cells − background without cells) ∗ 100.

Row | SMILES | Percent Inhibition [%]
1 | COC(=O)C1OC(Oc2cc(O)c3c(c2)OC(c2ccc(O)c(O)c2)CC3=O)C(O)C(O)C1O (stereo not drawn) [gly-5] | 0

These compounds were tested on J82 (assay: Cell panel screen (CellTiter-Glo)). Settings: J82 (Urinary bladder), 20 micromolar, 72 hrs.
Format: cell-based, human
Procedure: as §1

Row | SMILES | Percent Inhibition [%]
2 | COC(=O)C1OC(Oc2cc(O)c3c(c2)OC(c2ccc(O)c(O)c2)CC3=O)C(O)C(O)C1O (stereo not drawn) [gly-5] | -8

These compounds were tested on M059J (assay: Cell panel screen (CellTiter-Glo)). Settings: M059J (Brain), 20 micromolar, 72 hrs.
Format: cell-based, human
Procedure: as §1

Row | SMILES | Percent Inhibition [%]
3 | COC(=O)C1OC(Oc2cc(O)c3c(c2)OC(c2ccc(O)c(O)c2)CC3=O)C(O)C(O)C1O (stereo not drawn) [gly-5] | 6

The compounds below were run on MSTO-211-H (assay: Cell panel screen (CellTiter-Glo)). Settings: MSTO-211-H (Lung), 20 micromolar, 72 hrs.
Format: cell-based, human
Procedure: as §1

Row | SMILES | Percent Inhibition [%]
4 | COC(=O)C1OC(Oc2cc(O)c3c(c2)OC(c2ccc(O)c(O)c2)CC3=O)C(O)C(O)C1O (stereo not drawn) [gly-5] | -6

Each compound was assayed on NCI-H1623 (assay: Cell panel screen (CellTiter-Glo)). Settings: NCI-H1623 (Lung), 20 micromolar, 72 hrs.
Format: cell-based, human
Procedure: as §1

Row | SMILES | Percent Inhibition [%]
5 | COC(=O)C1OC(Oc2cc(O)c3c(c2)OC(c2ccc(O)c(O)c2)CC3=O)C(O)C(O)C1O (stereo not drawn) [gly-5] | 7

These compounds were tested on NCI-H1694 (assay: Cell panel screen (CellTiter-Glo)). Settings: NCI-H1694 (Lung), 20 micromolar, 72 hrs.
Format: cell-based, human
Procedure: as §1

Row | SMILES | Percent Inhibition [%]
6 | COC(=O)C1OC(Oc2cc(O)c3c(c2)OC(c2ccc(O)c(O)c2)CC3=O)C(O)C(O)C1O (stereo not drawn) [gly-5] | -2

What follows are compounds tested on NCI-H1770 (assay: Cell panel screen (CellTiter-Glo)). Settings: NCI-H1770 (Lung), 20 micromolar, 72 hrs.
Format: cell-based, human
Procedure: as §1

Row | SMILES | Percent Inhibition [%]
7 | COC(=O)C1OC(Oc2cc(O)c3c(c2)OC(c2ccc(O)c(O)c2)CC3=O)C(O)C(O)C1O (stereo not drawn) [gly-5] | -6

The compounds below were run on NCI-H2347 (assay: Cell panel screen (CellTiter-Glo)). Settings: NCI-H2347 (Lung), 20 micromolar, 72 hrs.
Format: cell-based, human
Procedure: as §1

Row | SMILES | Percent Inhibition [%]
8 | COC(=O)C1OC(Oc2cc(O)c3c(c2)OC(c2ccc(O)c(O)c2)CC3=O)C(O)C(O)C1O (stereo not drawn) [gly-5] | 1

These compounds were tested on NCI-H2405 (assay: Cell panel screen (CellTiter-Glo)). Settings: NCI-H2405 (Lung), 20 micromolar, 72 hrs.
Format: cell-based, human
Procedure: as §1

Row | SMILES | Percent Inhibition [%]
9 | COC(=O)C1OC(Oc2cc(O)c3c(c2)OC(c2ccc(O)c(O)c2)CC3=O)C(O)C(O)C1O (stereo not drawn) [gly-5] | 5

Each compound was assayed on NCI-H28 (assay: Cell panel screen (CellTiter-Glo)). Settings: NCI-H28 (Lung), 20 micromolar, 72 hrs.
Format: cell-based, human
Procedure: as §1

Row | SMILES | Percent Inhibition [%]
10 | COC(=O)C1OC(Oc2cc(O)c3c(c2)OC(c2ccc(O)c(O)c2)CC3=O)C(O)C(O)C1O (stereo not drawn) [gly-5] | -17

These compounds were tested on NCI-H524 (assay: Cell panel screen (CellTiter-Glo)). Settings: NCI-H524 (Lung), 20 micromolar, 72 hrs.
Format: cell-based, human
Procedure: as §1

Row | SMILES | Percent Inhibition [%]
11 | COC(=O)C1OC(Oc2cc(O)c3c(c2)OC(c2ccc(O)c(O)c2)CC3=O)C(O)C(O)C1O (stereo not drawn) [gly-5] | -5

What follows are compounds tested on Panc 03.27 (assay: Cell panel screen (CellTiter-Glo)). Settings: Panc 03.27 (Pancreas), 20 micromolar, 72 hrs.
Format: cell-based, human
Procedure: as §1

Row | SMILES | Percent Inhibition [%]
12 | COC(=O)C1OC(Oc2cc(O)c3c(c2)OC(c2ccc(O)c(O)c2)CC3=O)C(O)C(O)C1O (stereo not drawn) [gly-5] | 3

Each compound was assayed on RL95 (assay: Cell panel screen (CellTiter-Glo)). Settings: RL95 (Uterus), 20 micromolar, 72 hrs.
Format: cell-based, human
Procedure: as §1

Row | SMILES | Percent Inhibition [%]
13 | COC(=O)C1OC(Oc2cc(O)c3c(c2)OC(c2ccc(O)c(O)c2)CC3=O)C(O)C(O)C1O (stereo not drawn) [gly-5] | 6

These compounds were tested on SW13 (assay: Cell panel screen (CellTiter-Glo)). Settings: SW13 (Adrenal gland), 20 micromolar, 72 hrs.
Format: cell-based, human
Procedure: as §1

Row | SMILES | Percent Inhibition [%]
14 | COC(=O)C1OC(Oc2cc(O)c3c(c2)OC(c2ccc(O)c(O)c2)CC3=O)C(O)C(O)C1O (stereo not drawn) [gly-5] | -6

What follows are compounds tested on T47D (assay: Cell panel screen (CellTiter-Glo)). Settings: T47D (Breast), 20 micromolar, 72 hrs.
Format: cell-based, human
Procedure: as §1

Row | SMILES | Percent Inhibition [%]
15 | COC(=O)C1OC(Oc2cc(O)c3c(c2)OC(c2ccc(O)c(O)c2)CC3=O)C(O)C(O)C1O (stereo not drawn) [gly-5] | 2

These compounds were tested on T98G (assay: Cell panel screen (CellTiter-Glo)). Settings: T98G (Brain), 20 micromolar, 72 hrs.
Format: cell-based, human
Procedure: as §1

Row | SMILES | Percent Inhibition [%]
16 | COC(=O)C1OC(Oc2cc(O)c3c(c2)OC(c2ccc(O)c(O)c2)CC3=O)C(O)C(O)C1O (stereo not drawn) [gly-5] | 0

Each compound was assayed on TCCSUP (assay: Cell panel screen (CellTiter-Glo)). Settings: TCCSUP (Urinary bladder), 20 micromolar, 72 hrs.
Format: cell-based, human
Procedure: as §1

Row | SMILES | Percent Inhibition [%]
17 | COC(=O)C1OC(Oc2cc(O)c3c(c2)OC(c2ccc(O)c(O)c2)CC3=O)C(O)C(O)C1O (stereo not drawn) [gly-5] | -11

Each compound was assayed on ZR-75-30 (assay: Cell panel screen (CellTiter-Glo)). Settings: ZR-75-30 (Breast), 20 micromolar, 72 hrs.
Format: cell-based, human
Procedure: as §1

Row | SMILES | Percent Inhibition [%]
18 | COC(=O)C1OC(Oc2cc(O)c3c(c2)OC(c2ccc(O)c(O)c2)CC3=O)C(O)C(O)C1O (stereo not drawn) [gly-5] | 7
